# Source: patent US12071469B2, “Peptide compounds for suppressing inflammation” (Duke University, priority 2011, dated 2024)
# “And” between values parts separate entries of the source, which are not always exact repeats. Identical values can stand only once.
# Tests used:
# [1] = Mouse brain PK of VSRRR (CNS penetration) by LC/MS; assay type: in vivo; conditions: for Brain Pilot, Ratio to Heavy / Brain Pilot, fmol/mg (tissue) / Brain Pilot, pg/mg (tissue): individual mouse brains, single-point internal standard quantitation; for Single-Dosed Brain PK, fmol analyte/mg tissue / Single-Dosed Brain PK, pg/mg of tissue: single dose 0.8 mg/kg, average of 5 animals
# Procedure: Mouse Brain PK on Therapeutic Peptide, VSRRR—Sample Preparation Procedure
# Mice brains were weighed in a 1.5 mL Eppendorf tube. The entire brain was transferred to a 14 mL culture tube. 1 mL of 8 M urea in 50 mM ammonium formate (pH 10) with 2.5 pmol/mL SIL peptide per 100 mg wet tissue weight was added. For standard controls and QCs, 10 μL of peptide standard per every 100 mg of brain tissue (1%) was added with 990 μL of the aforementioned buffer to bring to a 1 mL total volume for every 100 mg of tissue. A tissue tearor was used on each sample for about 20 sec. 1.5 mL of the sample was transferred to a 2-mL Eppendorf tube. Each sample was probe sonicated for 3 bursts of 5 sec per burst. The sample was then heated at 37° C. for 30 min. The sample was centrifuged for 30 min at 15,000 rpm. Very little precipitate was visible at the bottom of each tube and avoided when pipetting 1 mL of the sample (out of 1.5 mL total volume) and placing directly onto an OASIS® plate. Salts and proteins were removed using the OASIS® HLB Solid Phase Extraction (SPE) protocol described above for the plasma sample. After the extraction, the samples were dried down in a Speed Vac and reconstitute in 25 μL of 1% ACN/0.1% TFA/0.02% HFBA. 3 μL of the sample was injected into a SYNAPT™ G2 HDMS™ (Waters Corp.) using Full Scan MS method, with a run time of 16.5 min total. Peptide(s) of interest were monitored between 3-8 min.
# Table 5 and FIG. 10 show the average amount of peptide in the CNS sample from 5 animals over time after a single dosing of 0.8 mg/kg of the peptide.
# The analyte concentrations were calculated from a single-point internal standard quantitation. […] The analyte concentrations were calculated from a 7-point standard curve calibration curve equation generated with samples between 1.4 pg analyte/mg tissue and 89.2 pg/mg (2× serial dilutions). The inter-animal reproducibility for the brain analyses is high ([…] 21% CV). The drug molecule in the single-dosed brain Cmax is about 9 pg analyte/mg tissue.
# [2] = system: mice with traumatic brain injury; experiment: Morris water maze neurocognitive performance after traumatic brain injury; assay type: in vivo, mouse; conditions: 0.05 mg/kg or 0.2 mg/kg iv at 2 h and 6 h after traumatic brain injury; days 28-31 post-injury; FIG. 4
# Procedure: An experimental murine model for traumatic brain injury was developed. Laskowitz, et al. (2010) J. Neurotrauma, 27:1983-95. Male mice (age 12-14 weeks) were anesthetized with 4.3% isoflurane in oxygen in an anesthesia induction box for 90 seconds. The trachea was intubated and the lungs mechanically ventilated with 1.4% isoflurane in a 50/50 mixture of oxygen and nitrogen. Body temperature was maintained at 37° C. using surface heating/cooling. The top of the skull was exposed by a midline incision to identify anatomical landmarks, and a concave 3-mm metallic disc was secured to the skull surface with an adhesive, directly midline and just caudal to the bregma. […]
# Another experimental procedure for measuring neurological deficits was developed using a Morris water maze. […] Latency to finding the platform and swimming speed were recorded using a computerized video tracking system (Ethovision 2.2.14; available from Noldus Information Technology, Leesburg VA).
# Groups of mice received either an ApoE mimetic peptide (SEQ ID NO:4; 0.05 mg/kg) or carrier (saline) by intravenous tail vein injection at 2 hours and again at 6 hours after traumatic brain injury induced as described in Example 3. Each mouse was tested for vestibulomotor function by rotorod latency measured before and after injury, as described in Example 3. […]
substance,measurement,setting,value
"Ac-VSRRR-NH2 [VR-55, Ac-VSRRR-NH2]","Brain Pilot, Ratio to Heavy",[1]; 3 min,0.245 and 0.371
same,"Brain Pilot, fmol/mg (tissue)",[1]; 3 min,15 fmol/mg (tissue) and 23 fmol/mg (tissue)
same,"Brain Pilot, pg/mg (tissue)",[1]; 3 min,11 pg/mg (tissue) and 17 pg/mg (tissue)
same,"Brain Pilot, Ratio to Heavy",[1]; 10 min,0.157 and 0.435
same,"Brain Pilot, fmol/mg (tissue)",[1]; 10 min,10 fmol/mg (tissue) and 27 fmol/mg (tissue)
same,"Brain Pilot, pg/mg (tissue)",[1]; 10 min,7 pg/mg (tissue) and 19 pg/mg (tissue)
same,single-dosed brain Cmax,"[1]; mouse brain, single dose",about 9 pg analyte/mg tissue
same,"Single-Dosed Brain PK, fmol analyte/mg tissue","[1]; mouse brain, 1 min",10.91 fmol analyte/mg tissue
same,"Single-Dosed Brain PK, pg/mg of tissue","[1]; mouse brain, 1 min",7.79 pg/mg of tissue
same,"Single-Dosed Brain PK, fmol analyte/mg tissue","[1]; mouse brain, 3 min",12.30 fmol analyte/mg tissue
same,"Single-Dosed Brain PK, pg/mg of tissue","[1]; mouse brain, 3 min",8.79 pg/mg of tissue
same,"Single-Dosed Brain PK, fmol analyte/mg tissue","[1]; mouse brain, 5 min",11.26 fmol analyte/mg tissue
same,"Single-Dosed Brain PK, pg/mg of tissue","[1]; mouse brain, 5 min",8.04 pg/mg of tissue
same,"Single-Dosed Brain PK, fmol analyte/mg tissue","[1]; mouse brain, 10 min",11.83 fmol analyte/mg tissue
same,"Single-Dosed Brain PK, pg/mg of tissue","[1]; mouse brain, 10 min",8.44 pg/mg of tissue
same,"Single-Dosed Brain PK, fmol analyte/mg tissue","[1]; mouse brain, 15 min",10.56 fmol analyte/mg tissue
same,"Single-Dosed Brain PK, pg/mg of tissue","[1]; mouse brain, 15 min",7.54 pg/mg of tissue
same,"Single-Dosed Brain PK, fmol analyte/mg tissue","[1]; mouse brain, 30 min",8.87 fmol analyte/mg tissue
same,"Single-Dosed Brain PK, pg/mg of tissue","[1]; mouse brain, 30 min",6.33 pg/mg of tissue
same,"Single-Dosed Brain PK, fmol analyte/mg tissue","[1]; mouse brain, 60 min",7.64 fmol analyte/mg tissue
same,"Single-Dosed Brain PK, pg/mg of tissue","[1]; mouse brain, 60 min",5.46 pg/mg of tissue
same,CNS penetration,"[1]; preliminary data, brain pilot",CNS penetration
same,neurocognitive outcomes (Morris water maze latency),[2],improved neurocognitive outcomes
